Broadly, the MIC is the lowest concentration found to suppress growth.

Common to all, as to assay: MIC, CLSI broth microdilution
Assay type in all cases: cell-based

Assay [1] relates to Acinetobacter baumannii ATCC 19606. Particulars: ATCC19606. The procedure:
(§1) Gram-negative and Gram-positive bacterial strains used during the in vitro minimum inhibitory concentration (MIC) determination were obtained either from the American Type Culture Collection (ATCC) or from clinical specimens. All strains were characterized genotypically and the respective antibiotic resistance markers for each strain were identified.
(§2) Isolates were sub-cultured onto appropriate media and stocked in skim milk at −80° C. Following two subcultures from frozen stock, in vitro antimicrobial susceptibility testing was performed using the Clinical and Laboratory Standards Institute (CLSI) broth microdilution method. Briefly, fresh cultures were suspended in culture media to give a final stock inoculum size of 5×10^7 colony forming units per milliliter of broth (CFU/mL). […] 100 μL of the stock solutions were added to the first wells in a 96-well plate and were then diluted using a 2-fold dilution method to give a range of 32-0.025 μg/mL. 100 μL of the bacterial suspensions were then added to the 96-well plates to give a final working inoculum size of 5×10^5 CFU/mL. The final compound concentration range was 16-0.0125 μg/mL. […] MICs for comparator agents were determined using custom-designed, in-house prepared 96-well broth microdilution panels.

In assay [2] the test system is Citrobacter freundii species complex OXA-181. The procedure: as §1, §2
The test system of assay [3] is Enterobacter cloacae species complex NDM-1. The method, then:
as §1, §2

The test system of assay [4] is Escherichia coli ATCC 25922. The settings on record: ATCC25922. The procedure:
as §1, §2

The subject of the next assay is Escherichia coli CMY-2. Particulars: CMY2. The method, then: as §1, §2
For assay [5], the system named is Escherichia coli CTX-M-15. The settings on record: CTXM15. The method, then: as §1, §2
Assay [6] has as its system Escherichia coli Empty pSMART plasmid. The procedure:
as §1, §2

The test system of assay [7] is Escherichia coli Isogenic TEM-10. The procedure:
as §1, §2

Assay [8] deals with Escherichia coli Isogenic TEM-26. The method, then: as §1, §2
The next assay concerns Escherichia coli SHV-12. The settings on record: SHV12. The procedure: as §1, §2
Assay [9] deals with Escherichia coli pSMART_Cfreundii_AmpC. The method, then: as §1, §2
Assay [10] concerns Escherichia coli pSMART_Ecloacae_AmpC. The method, then: as §1, §2
Assay [11] concerns Klebsiella aerogenes VIM-1, SHV-12. The procedure: as §1, §2
In assay [12] the test system is Klebsiella oxytoca KPC-2, TEM-1. The method, then: as §1, §2
Assay [13] has as its system Klebsiella pneumoniae KPC-2. Particulars: KPC2. The method, then: as §1, §2
Assay [14] relates to Klebsiella pneumoniae KPC-3. The procedure:
as §1, §2

For assay [15], the system named is Klebsiella pneumoniae OXA-163, OXA-1_OXA-30, SHV-1, TEM-1. The method, then:
as §1, §2

Assay [16] concerns Klebsiella pneumoniae OXA-48, SHV-1. The method, then: as §1, §2
Assay [17] concerns Klebsiella pneumoniae SHV-12. The method, then: as §1, §2
The test system of assay [18] is Pseudomonas aeruginosa ATCC 27853. The settings on record: ATCC27853. The procedure:
as §1, §2

Assay [19] has as its system Pseudomonas aeruginosa AmpC overexpressed. The procedure:
as §1, §2

Assay [20] concerns Pseudomonas aeruginosa OprD negative. The procedure:
as §1, §2

The subject of assay [21] is Serratia marcescens AmpC overexpressed. The method, then:
as §1, §2

The subject of assay [22] is Serratia marcescens SME-2. The settings on record: SME2. The method, then:
as §1, §2

[23] abbreviates: Citrobacter freundii species complex, OXA-181, read-out: MIC.

Structures are written as SMILES. ≈ marks a conversion by molar mass, not a printed value. Read-outs that look alike come from different tables or passages of the source.

Regarding `CC(C)(O/N=C(\C(=O)N[C@H]1CON(C2(C(=O)O)C[C@H](N3C(=O)c4cc(O)c(O)nc4C3=O)C(=O)O2)C1=O)c1csc(N)n1)C(=O)O` (stereo partly drawn) [Cmpd 36, (4S)-2-[(4S)-4-{[(2Z)-2-(2-amino-1,3-thiazol-4-yl)-2-{[(2-carboxypropan-2-yl)oxy]imino}acetyl]amino}-3-oxo-1,2-oxazolidin-2-yl]-4-(2,3-dihydroxy-5,7-dioxo-5,7-dihydro-6H-pyrrolo[3,4-b]pyridin-6-yl)-5-oxooxolane-2-carboxylic acid], the MIC in [1] is 0.12 µg/mL (≈ 0.181 µM); in assay [2] (Citrobacter freundii), 0.0149 µg/mL (≈ 0.0225 µM); in assay [3] it was 0.25 µg/mL (≈ 0.377 µM); in assay [4], 0.06 µg/mL (≈ 0.0904 µM); against Escherichia coli CMY-2 it was 1 µg/mL (≈ 1.51 µM); in assay [5], 2 µg/mL (≈ 3.01 µM). The minimal inhibitory concentration (MIC) came to 0.06 µg/mL (≈ 0.0904 µM) in [6]; 0.0149 µg/mL (≈ 0.0225 µM) in assay [7]; 0.0149 µg/mL (≈ 0.0225 µM) in [8]; 1 µg/mL (≈ 1.51 µM) in the assay on Escherichia coli SHV-12; 0.06 µg/mL (≈ 0.0904 µM) in assay [9]; 0.03 µg/mL (≈ 0.0452 µM) in assay [10]. In addition, the minimum inhibitory concentration (MIC) in [11] turned out to be 2 µg/mL (≈ 3.01 µM); in assay [12], 0.0149 µg/mL (≈ 0.0225 µM); in [13], 0.12 µg/mL (≈ 0.181 µM); in [14] (KPC3), 0.0149 µg/mL (≈ 0.0225 µM); in assay [15], 0.06 µg/mL (≈ 0.0904 µM); in assay [16] it was 0.0149 µg/mL (≈ 0.0225 µM). For the same molecule, the minimal inhibitory concentration (MIC) in [17] (SHV12) was 0.0149 µg/mL (≈ 0.0225 µM); in [18], 0.12 µg/mL (≈ 0.181 µM); in assay [19], 0.5 µg/mL (≈ 0.754 µM); in assay [20], 0.12 µg/mL (≈ 0.181 µM); in [21] it was 0.06 µg/mL (≈ 0.0904 µM); in assay [22] it was 0.06 µg/mL (≈ 0.0904 µM).
For the molecule `Nc1nc(/C(=N/OC2(C(=O)O)CNC2)C(=O)N[C@H]2CON(C3(C(=O)O)C[C@H](N4C(=O)c5cc(O)c(O)cc5C4=O)C(=O)O3)C2=O)cs1` (stereo partly drawn) [Cmpd 7, 3-({(Z)-[1-(2-amino-1,3-thiazol-4-yl)-2-({(4S)-2-[(4S)-2-carboxy-4-(5,6-dihydroxy-1,3-dioxo-1,3-dihydro-2H-isoindol-2-yl)-5-oxooxolan-2-yl]-3-oxo-1,2-oxazolidin-4-yl}amino)-2-oxoethylidene]amino}oxy)azetidine-3-carboxylic acid], the minimal inhibitory concentration (MIC) in assay [1] is greater than 16 µg/mL; in assay [2] (setting [23]), 1 µg/mL (≈ 1.48 µM); in assay [3] it was greater than 16 µg/mL; in assay [4], 1 µg/mL (≈ 1.48 µM); against Escherichia coli CMY-2, 4 µg/mL (≈ 5.92 µM); in [5], 8 µg/mL (≈ 11.8 µM). The MIC was 0.12 µg/mL (≈ 0.178 µM) in [6]; 0.12 µg/mL (≈ 0.178 µM) in assay [7]; 0.25 µg/mL (≈ 0.37 µM) in assay [8]; 1 µg/mL (≈ 1.48 µM) in the assay with Escherichia coli SHV-12; 1 µg/mL (≈ 1.48 µM) in [9]; 0.5 µg/mL (≈ 0.74 µM) in assay [10]. Further, the minimum inhibitory concentration (MIC) in assay [11] stood at 8 µg/mL (≈ 11.8 µM); in [12] (KPC-2, TEM-1, read-out: MIC), 0.12 µg/mL (≈ 0.178 µM); in [13], 0.5 µg/mL (≈ 0.74 µM); in assay [14] (KPC3, KPC-3, read-out: MIC) it was 0.5 µg/mL (≈ 0.74 µM); in [15], 0.5 µg/mL (≈ 0.74 µM); in assay [16], 0.12 µg/mL (≈ 0.178 µM). Besides, the MIC was 0.5 µg/mL (≈ 0.74 µM) in [17] (SHV12, SHV-12, read-out: MIC); greater than 16 µg/mL in assay [18]; greater than 16 µg/mL in assay [19]; greater than 16 µg/mL in assay [20]; greater than 16 µg/mL in assay [21]; 0.5 µg/mL (≈ 0.74 µM) in assay [22].
Take `Nc1nc(/C(=N/OC2(C(=O)O)CC3CCC(C2)O3)C(=O)N[C@H]2CON(C3(C(=O)O)C[C@H](N4C(=O)c5cc(O)c(O)cc5C4=O)C(=O)O3)C2=O)cs1` (stereo partly drawn) [Cmpd 13, 3-({(Z)-[1-(2-amino-1,3-thiazol-4-yl)-2-({(4S)-2-[(4S)-2-carboxy-4-(5,6-dihydroxy-1,3-dioxo-1,3-dihydro-2H-isoindol-2-yl)-5-oxooxolan-2-yl]-3-oxo-1,2-oxazolidin-4-yl}amino)-2-oxoethylidene]amino}oxy)-8-oxabicyclo[3.2.1]octane-3-carboxylic acid]: the minimal inhibitory concentration (MIC) in assay [1] came to 0.12 µg/mL (≈ 0.164 µM); in assay [2] (setting [23]) it was 0.0149 µg/mL (≈ 0.0204 µM); in assay [3], 1 µg/mL (≈ 1.37 µM); in [4], 0.12 µg/mL (≈ 0.164 µM); with Escherichia coli CMY-2, 0.5 µg/mL (≈ 0.684 µM); in assay [5] it was 4 µg/mL (≈ 5.47 µM). Further, the minimum inhibitory concentration (MIC) in assay [6] is 0.12 µg/mL (≈ 0.164 µM); in assay [7] it was 0.03 µg/mL (≈ 0.0411 µM); in assay [8] it was 0.03 µg/mL (≈ 0.0411 µM); in the assay with Escherichia coli SHV-12 it was 2 µg/mL (≈ 2.74 µM); in [9], 0.06 µg/mL (≈ 0.0821 µM); in [10], 0.06 µg/mL (≈ 0.0821 µM). For the same molecule, the MIC in assay [11] worked out at 0.25 µg/mL (≈ 0.342 µM); in assay [12] (KPC-2, TEM-1, read-out: MIC), 0.0149 µg/mL (≈ 0.0204 µM); in assay [13], 0.25 µg/mL (≈ 0.342 µM); in assay [14] (KPC3, KPC-3, read-out: MIC), 0.06 µg/mL (≈ 0.0821 µM); in [15], 0.12 µg/mL (≈ 0.164 µM); in [16] it was 0.0149 µg/mL (≈ 0.0204 µM). Also, the minimal inhibitory concentration (MIC) came out at 0.03 µg/mL (≈ 0.0411 µM) in [17] (SHV12, SHV-12, read-out: MIC); 0.25 µg/mL (≈ 0.342 µM) in assay [18]; 1 µg/mL (≈ 1.37 µM) in assay [19]; 0.25 µg/mL (≈ 0.342 µM) in assay [20]; 0.12 µg/mL (≈ 0.164 µM) in assay [21]; 0.25 µg/mL (≈ 0.342 µM) in [22].
With `Nc1nc(/C(=N/OC2(C(=O)O)CC3CCC(C2)O3)C(=O)N[C@H]2CON(C3(C(=O)O)C[C@H](N4Cc5cc(O)c(O)cc5C4=O)C(=O)O3)C2=O)cs1` (stereo partly drawn) [Cmpd 30, 3-({(Z)-[1-(2-amino-1,3-thiazol-4-yl)-2-({(4S)-2-[(4S)-2-carboxy-4-(5,6-dihydroxy-1-oxo-1,3-dihydro-2H-isoindol-2-yl)-5-oxooxolan-2-yl]-3-oxo-1,2-oxazolidin-4-yl}amino)-2-oxoethylidene]amino}oxy)-8-oxabicyclo[3.2.1]octane-3-carboxylic acid], the MIC is 0.5 µg/mL (≈ 0.698 µM) in assay [1]; 0.12 µg/mL (≈ 0.167 µM) in assay [2] (setting [23]); 4 µg/mL (≈ 5.58 µM) in assay [3]; 1 µg/mL (≈ 1.4 µM) in assay [4]; 4 µg/mL (≈ 5.58 µM) in the assay with Escherichia coli CMY-2; 8 µg/mL (≈ 11.2 µM) in assay [5]. Further, the minimal inhibitory concentration (MIC) in [6] came out at 1 µg/mL (≈ 1.4 µM); in assay [7], 0.12 µg/mL (≈ 0.167 µM); in assay [8], 0.5 µg/mL (≈ 0.698 µM); against Escherichia coli SHV-12, 8 µg/mL (≈ 11.2 µM); in assay [9] it was 0.25 µg/mL (≈ 0.349 µM); in [10] it was 0.25 µg/mL (≈ 0.349 µM). In addition, the minimal inhibitory concentration (MIC) stood at 0.12 µg/mL (≈ 0.167 µM) in assay [11]; 0.03 µg/mL (≈ 0.0419 µM) in assay [12] (KPC-2, TEM-1, read-out: MIC); 0.03 µg/mL (≈ 0.0419 µM) in [13]; 0.12 µg/mL (≈ 0.167 µM) in assay [14] (KPC3, KPC-3, read-out: MIC); 1 µg/mL (≈ 1.4 µM) in assay [15]; 0.06 µg/mL (≈ 0.0837 µM) in assay [16]. In addition, the minimum inhibitory concentration (MIC) in assay [17] (SHV12, SHV-12, read-out: MIC) turned out to be 0.25 µg/mL (≈ 0.349 µM); in assay [18] it was 4 µg/mL (≈ 5.58 µM); in [19] it was 4 µg/mL (≈ 5.58 µM); in [20] it was 1 µg/mL (≈ 1.4 µM); in assay [21] it was 0.5 µg/mL (≈ 0.698 µM); in assay [22] it was 0.5 µg/mL (≈ 0.698 µM).

These data come from US11780832B2, “Lactivicin compounds, their preparation and use as antibacterial agents” (priority 2021, dated 2023).
